Reference: patent US9253979B2, “Methods of controlling insects” (priority 2010, dated 2016)
Where two headings read alike, the source gives them in different places.

Assays:
Format in all cases: in vivo, Drosophila melanogaster
[1] = tested on: Line 14 (susceptible wildtype control) Drosophila strain; test: Dosage mortality testing, first instar larvae, Line 14 strain; details: applied to insect diet, Probit analysis
Experimental: (§1) Dosage mortality testing was conducted on four strains of Drosophila melanogaster. Each of the Drosophila strains tested had at least one lesion in one of the nAChR subunits or was a control strain lacking a lesion. […] The 4A4D Drosophila strain was a double mutant having lesions in both the Dα1 subunit and the Dβ2 subunit. The susceptible Drosophila strain or control Drosophila strain was the wildtype Drosophila strain in which the EMS lesions were generated, and is referred to in Tables 1-4 as the “Line 14” strain.
Screening was performed on first instar larvae with five replicates of fifty larvae per vial at each concentration to determine the susceptibility of each Drosophila strain to the spinosyn composition and to an imidacloprid composition. The spinosyn composition (spinosad) included 85% spinosyn A and 15% spinosyn D in a sugar solution. Stock solutions were typically made 0.1% w/v in acetone and then diluted to lower concentrations. The spinosyn or imidacloprid compositions were then applied to the insect diet, allowed to dry and then infested with the insect larvae. […]

[2] = tested on: Dα1EMS1 Drosophila strain (lesion in the Dα1 nAChR subunit); test: Dosage mortality testing, first instar larvae, Dα1EMS1 strain; details: for Fold resistance: Dα1EMS1 strain relative to Line 14
Experimental: as §1
(§2) Screening was performed on first instar larvae with five replicates of fifty larvae per vial at each concentration to determine the susceptibility of each Drosophila strain to the spinosyn composition and to an imidacloprid composition. The spinosyn composition (spinosad) included 85% spinosyn A and 15% spinosyn D in a sugar solution. Stock solutions were typically made 0.1% w/v in acetone and then diluted to lower concentrations. The spinosyn or imidacloprid compositions were then applied to the insect diet, allowed to dry and then infested with the insect larvae.
(§3) The concentrations of the spinosyn composition and the imidacloprid composition were selected across a range to provide data enabling the effective dose (ED) that produces a response in 50% of the first instar larvae (ED50) and the effective dose that produces a response in 90% of the first instar larvae (ED90) to be calculated. After administering the spinosyn composition or the imidacloprid composition, the first instar larvae were visually monitored for mortality. Data were analyzed using Probit analysis to determine the ED50 and the ED90, along with upper and lower 95% limits.

[3] = tested on: Dβ2EMS2 Drosophila strain (lesion in the Dβ2 subunit); test: Dosage mortality testing, first instar larvae, Dβ2EMS2 strain; details: for Fold resistance: Dβ2EMS2 strain relative to Line 14
Experimental: as §1, §2, §3

[4] = tested on: 4A4D Drosophila strain (double mutant, lesions in both the Dα1 subunit and the Dβ2 subunit); details: for Fold resistance: 4A4D strain relative to Line 14
Experimental: as §1, §2, §3

[5] = Dα1EMS1 strain, first instar larvae, mortality, applied to insect diet, Probit analysis
[6] = Dβ2EMS2 strain, first instar larvae, mortality, applied to insect diet, Probit analysis
[7] = 4A4D strain, first instar larvae, mortality, applied to insect diet, Probit analysis

For `O=[N+]([O-])NC1=NCCN1Cc1ccc(Cl)nc1` [imidacloprid composition, imidacloprid], the ED50 [1] was 0.14 ppm, the ED90 [1] was 0.28 ppm and the ED50 [2, 5] was 2.91 ppm. For the same compound, the ED90 [2, 5] was 5.77 ppm, the Fold resistance ([2]; ED50 table) was 20.63 and the Fold resistance ([2]; ED90 table) was 20.63. For the same compound, the ED50 [3, 6] was 4.04 ppm, the ED90 [3, 6] was 8.02 ppm and the Fold resistance ([3]; ED50 table) was 28.69. The Fold resistance ([3]; ED90 table) was 28.70, the ED50 [4, 7] was 3.78 ppm and the ED90 [4, 7] was 7.49 ppm. The Fold resistance ([4]; ED50 table) was 26.81 and the Fold resistance ([4]; ED90 table) was 26.81.
